# Source: ChEMBL document CHEMBL1201862, “PubChem BioAssay data set” (2004)
#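 Cells were grown in 96-well plates and exposed to each compound for 48 hours at five concentrations; endpoints were interpolated linearly between bracketing concentrations, or set to the highest concentration if not reached. GI50: concentration for 50% inhibition of growth.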 Active and inactive are the calls of the source. Cut-off read from the data, not from the text of the source: active = GI50 up to about 1.1 µM and inactive = higher.
# Key:
# Assay in all cases: NCI-60 cell line screen, 48 h
# [1] = tested on: MDA-MB-435
# [2] = tested on: HCT-116
# [3] = tested on: Malme-3M
# [4] = tested on: NCI-H23
# [5] = tested on: NCI-H226
# [6] = tested on: M14
# [7] = tested on: SNB-19
# [8] = tested on: K562
# [9] = tested on: OVCAR-3
# [10] = tested on: SR
# [11] = tested on: TK-10
# [12] = tested on: SNB-75
# [13] = tested on: SK-MEL-5
# [14] = tested on: IGROV-1
# [15] = tested on: 786-0
# [16] = tested on: KM12
# [17] = tested on: CAKI-1
# [18] = tested on: T47D
# [19] = tested on: MDA-N
# [20] = tested on: UACC-62
# [21] = tested on: MCF7
# [22] = tested on: Hs-578T
# [23] = tested on: HOP-92
# [24] = tested on: COLO 205
# [25] = tested on: HCT-15
# [26] = tested on: OVCAR-8
# [27] = tested on: SW-620
# [28] = tested on: SN12C
# [29] = tested on: BT-549
# [30] = tested on: RXF 393
# [31] = tested on: RPMI-8226
# [32] = tested on: DU-145
# [33] = tested on: HL-60
# [34] = tested on: MDA-MB-231
# [35] = tested on: MOLT-4
# [36] = tested on: LOX IMVI
# [37] = tested on: PC-3
# [38] = tested on: HOP-62
# [39] = tested on: UACC-257
# [40] = tested on: SK-MEL-2
# [41] = tested on: SF-295
# [42] = tested on: SK-MEL-28
# [43] = tested on: NCI-H460
# [44] = tested on: UO-31
# [45] = tested on: NCI/ADR-RES
# [46] = tested on: HCC 2998
# [47] = tested on: HT-29
# [48] = tested on: SF-268
# [49] = tested on: EKVX
# [50] = tested on: U-251
# [51] = tested on: CCRF-CEM
# [52] = tested on: OVCAR-4
# [53] = tested on: SK-OV-3
# [54] = tested on: NCI-H522
# [55] = tested on: SF-539
# [56] = tested on: OVCAR-5
# [57] = tested on: A549
# [58] = tested on: ACHN
# [59] = tested on: A498
compound,measurement,setting,value
OCCNc1nc2c(N3CCCC3)nc(N3CCNCC3)nc2nc1NCc1ccccc1,GI50,[1],12.4 µM (inactive)
same,GI50,[2],10.1 µM (inactive)
same,GI50,[3],19.6 µM (inactive)
same,GI50,[4],18.2 µM (inactive)
same,GI50,[5],16.3 µM (inactive)
same,GI50,[6],15.7 µM (inactive)
same,GI50,[7],15.8 µM (inactive)
same,GI50,[8],14 µM (inactive)
same,GI50,[9],4.92 µM (inactive)
same,GI50,[10],13.3 µM (inactive)
same,GI50,[11],15 µM (inactive)
same,GI50,[12],13.3 µM (inactive)
same,GI50,[13],12.6 µM (inactive)
same,GI50,[14],11.9 µM (inactive)
same,GI50,[15],14.8 µM (inactive)
same,GI50,[16],11.9 µM (inactive)
same,GI50,[17],16.2 µM (inactive)
same,GI50,[18],12.5 µM (inactive)
same,GI50,[19],11.9 µM (inactive)
same,GI50,[20],17.3 µM (inactive)
same,GI50,[21],14.3 µM (inactive)
same,GI50,[22],20.3 µM (inactive)
same,GI50,[23],7.8 µM (inactive)
same,GI50,[24],11.7 µM (inactive)
same,GI50,[25],16.4 µM
same,GI50,[26],15.9 µM (inactive)
same,GI50,[27],19.1 µM (inactive)
same,GI50,[28],16.7 µM (inactive)
same,GI50,[29],16.4 µM (inactive)
same,GI50,[30],11.3 µM (inactive)
same,GI50,[31],16.7 µM (inactive)
same,GI50,[32],11.3 µM (inactive)
same,GI50,[33],15.5 µM (inactive)
same,GI50,[34],15.7 µM (inactive)
same,GI50,[35],16 µM (inactive)
same,GI50,[36],14.7 µM (inactive)
same,GI50,[37],16.9 µM (inactive)
same,GI50,[38],2.63 µM (inactive)
same,GI50,[39],17.3 µM (inactive)
same,GI50,[40],15 µM (inactive)
same,GI50,[41],17.6 µM (inactive)
same,GI50,[42],17.5 µM (inactive)
same,GI50,[43],15.5 µM (inactive)
same,GI50,[44],15.3 µM (inactive)
same,GI50,[45],38.5 µM (inactive)
same,GI50,[46],15.2 µM (inactive)
same,GI50,[47],8.15 µM (inactive)
same,GI50,[48],16.9 µM (inactive)
same,GI50,[49],13.6 µM (inactive)
same,GI50,[50],11.1 µM (inactive)
same,GI50,[51],10.8 µM (inactive)
same,GI50,[52],17.3 µM (inactive)
same,GI50,[53],16.8 µM (inactive)
same,GI50,[54],12.7 µM (inactive)
same,GI50,[55],16.3 µM (inactive)
same,GI50,[56],12.1 µM (inactive)
same,GI50,[57],17 µM (inactive)
same,GI50,[58],15.5 µM (inactive)
COC1=C(OC)C(=O)C(C/C=C/c2c(Cl)nc3sccn23)=C(C)C1=O,GI50,[1],9.16 µM (inactive)
same,GI50,[2],12.8 µM (inactive)
same,GI50,[3],3.75 µM (inactive)
same,GI50,[4],0.518 µM (active)
same,GI50,[6],16.2 µM (inactive)
same,GI50,[7],14.1 µM (inactive)
same,GI50,[8],19.8 µM (inactive)
same,GI50,[9],13.7 µM (inactive)
same,GI50,[10],15 µM (inactive)
same,GI50,[11],15 µM (inactive)
same,GI50,[13],1.32 µM (inactive)
same,GI50,[14],17.4 µM (inactive)
same,GI50,[15],21.5 µM (inactive)
same,GI50,[16],17.5 µM (inactive)
same,GI50,[17],12.2 µM (inactive)
same,GI50,[59],22.2 µM (inactive)
same,GI50,[18],7.74 µM (inactive)
same,GI50,[19],6.38 µM (inactive)
same,GI50,[20],14.5 µM (inactive)
same,GI50,[21],5.19 µM (inactive)
same,GI50,[22],20.5 µM (inactive)
same,GI50,[24],16.9 µM (inactive)
same,GI50,[25],26.5 µM
same,GI50,[26],10.4 µM (inactive)
same,GI50,[27],21.3 µM (inactive)
same,GI50,[28],16.6 µM (inactive)
same,GI50,[29],15 µM (inactive)
same,GI50,[30],18.4 µM (inactive)
same,GI50,[31],4.35 µM (inactive)
same,GI50,[32],18.5 µM (inactive)
same,GI50,[34],7.67 µM (inactive)
same,GI50,[35],1.69 µM (inactive)
same,GI50,[36],2.24 µM (inactive)
same,GI50,[37],11.8 µM (inactive)
same,GI50,[38],16.8 µM (inactive)
same,GI50,[39],0.536 µM (active)
same,GI50,[40],16.4 µM (inactive)
same,GI50,[41],2.1 µM (inactive)
same,GI50,[42],17.9 µM (inactive)
same,GI50,[43],17.9 µM (inactive)
same,GI50,[44],18.7 µM (inactive)
same,GI50,[45],5.58 µM (inactive)
same,GI50,[46],18.2 µM (inactive)
same,GI50,[47],20.7 µM (inactive)
same,GI50,[48],16 µM (inactive)
same,GI50,[49],11.2 µM (inactive)
same,GI50,[50],5.87 µM (inactive)
same,GI50,[51],1.85 µM (inactive)
same,GI50,[52],0.398 µM (active)
same,GI50,[53],16.7 µM (inactive)
same,GI50,[54],15.1 µM (inactive)
same,GI50,[55],17.2 µM (inactive)
same,GI50,[56],16.9 µM (inactive)
same,GI50,[57],11.2 µM (inactive)
same,GI50,[58],15.5 µM (inactive)
